Values quoted from earlier work, collected in patent publication US20110178470A1, “PHARMACEUTICAL COMPOSITIONS COMPRISING BORONIC ACID COMPOUNDS” (DR. REDDY'S LABORATORIES LTD., priority 2008, published 2011).

Details: as the monomeric boronic acid; pH range of 2 to 6.5

solubility in water: 3300 to 3800 µg/mL
SMILES: CC(C)C[C@H](NC(=O)[C@H](Cc1ccccc1)NC(=O)c1cnccn1)B(O)O [bortezomib, [(1R)-3-methyl-1-[[(2S)-1-oxo-3-phenyl-2-[(pyrazinylcarbonyl)amino]propyl]amino]butyl]boronic acid]
